From ChEMBL document CHEMBL4177568 (Bioorg Med Chem Lett, 2017)
Calls of active or inactive are those of the source. No cut-off for these calls is given here.

Experiments:
[1] = molecular target: T1, Neuronal acetylcholine receptor; alpha4/beta2 (Homo sapiens) (UniProt P17787+P43681); assay: Antagonist activity at alpha4beta2 nAChR (unknown origin) expressed in Xenopus laevis oocytes assessed as reduction in acetylcholine-induced peak current at 30 uM at -60 mV holding potential by electrophysiology method; format: cell-based
[2] = molecular target: T1, Neuronal acetylcholine receptor; alpha4/beta2 (Homo sapiens); assay: Agonist activity at alpha4beta2 nAChR (unknown origin) expressed in Xenopus laevis oocytes assessed as increase in peak current at 30 uM at -60 mV holding potential by electrophysiology method; format: cell-based
[3] = molecular target: T2, Neuronal acetylcholine receptor; alpha3/beta4 (Homo sapiens, UniProt P30926+P32297); assay: Antagonist activity at human alpha3beta4 nAChR expressed in Xenopus laevis oocytes assessed as reduction in acetylcholine-induced peak current at -60 mV holding potential by electrophysiology method; format: cell-based
T2 sequence (P30926 whole entry): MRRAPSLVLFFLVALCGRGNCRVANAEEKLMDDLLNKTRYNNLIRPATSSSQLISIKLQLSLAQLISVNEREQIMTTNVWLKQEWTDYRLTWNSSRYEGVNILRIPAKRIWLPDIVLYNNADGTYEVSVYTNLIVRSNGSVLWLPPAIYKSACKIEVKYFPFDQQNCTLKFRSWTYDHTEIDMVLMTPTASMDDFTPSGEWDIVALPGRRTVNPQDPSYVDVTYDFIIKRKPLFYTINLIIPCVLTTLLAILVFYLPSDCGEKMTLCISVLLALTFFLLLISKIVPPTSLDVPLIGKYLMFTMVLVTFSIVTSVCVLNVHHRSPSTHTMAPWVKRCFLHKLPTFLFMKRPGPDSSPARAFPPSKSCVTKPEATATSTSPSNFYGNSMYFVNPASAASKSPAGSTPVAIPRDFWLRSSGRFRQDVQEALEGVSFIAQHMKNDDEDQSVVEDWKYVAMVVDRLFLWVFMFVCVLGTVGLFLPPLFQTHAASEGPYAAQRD
T2 sequence (P32297 whole entry): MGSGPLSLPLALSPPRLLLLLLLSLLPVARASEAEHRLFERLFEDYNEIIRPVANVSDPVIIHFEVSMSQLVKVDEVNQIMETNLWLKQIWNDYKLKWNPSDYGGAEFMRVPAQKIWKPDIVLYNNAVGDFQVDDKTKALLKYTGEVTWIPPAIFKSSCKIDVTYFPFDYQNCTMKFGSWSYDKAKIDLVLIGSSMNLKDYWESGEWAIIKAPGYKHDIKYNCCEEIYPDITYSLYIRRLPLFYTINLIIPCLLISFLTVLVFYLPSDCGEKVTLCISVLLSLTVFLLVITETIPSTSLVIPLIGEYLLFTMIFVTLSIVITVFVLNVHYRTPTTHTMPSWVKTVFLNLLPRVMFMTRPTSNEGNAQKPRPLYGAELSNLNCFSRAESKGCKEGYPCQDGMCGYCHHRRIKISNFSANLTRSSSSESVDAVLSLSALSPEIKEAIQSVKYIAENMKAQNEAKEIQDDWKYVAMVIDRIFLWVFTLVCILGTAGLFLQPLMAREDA

[4] = molecular target: T2, Neuronal acetylcholine receptor; alpha3/beta4; assay: Antagonist activity at human alpha3beta4 nAChR expressed in Xenopus laevis oocytes assessed as reduction in acetylcholine-induced peak current at 100 uM at -60 mV holding potential by electrophysiology method; format: cell-based
[5] = molecular target: Neuronal acetylcholine receptor subunit alpha-7 (Homo sapiens) (UniProt P36544); assay: Antagonist activity at alpha7 nAChR (unknown origin) expressed in Xenopus laevis oocytes assessed as reduction in acetylcholine-induced peak current at 60 uM at -60 mV holding potential by electrophysiology method; format: cell-based
Neuronal acetylcholine receptor subunit alpha-7 (Homo sapiens), sequence (P36544 whole entry): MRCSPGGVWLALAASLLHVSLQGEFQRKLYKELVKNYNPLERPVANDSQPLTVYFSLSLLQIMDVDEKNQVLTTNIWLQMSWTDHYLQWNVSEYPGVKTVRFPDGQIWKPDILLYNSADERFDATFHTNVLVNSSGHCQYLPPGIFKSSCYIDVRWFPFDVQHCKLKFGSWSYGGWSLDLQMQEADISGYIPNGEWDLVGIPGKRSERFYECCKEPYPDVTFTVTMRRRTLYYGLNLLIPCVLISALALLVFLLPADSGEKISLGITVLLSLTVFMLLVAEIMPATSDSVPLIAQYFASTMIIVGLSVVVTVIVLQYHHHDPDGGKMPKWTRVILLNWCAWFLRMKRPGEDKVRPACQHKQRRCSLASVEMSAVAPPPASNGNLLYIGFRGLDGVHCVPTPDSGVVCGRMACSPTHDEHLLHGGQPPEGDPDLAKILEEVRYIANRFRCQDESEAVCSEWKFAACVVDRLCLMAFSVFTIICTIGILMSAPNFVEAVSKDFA

[6] = molecular target: Neuronal acetylcholine receptor subunit alpha-7 (Homo sapiens) (UniProt P36544); assay: Agonist activity at alpha7 nAChR (unknown origin) expressed in Xenopus laevis oocytes assessed as increase in peak current at 60 uM at -60 mV holding potential by electrophysiology method; format: cell-based
[7] = molecular target: T2, Neuronal acetylcholine receptor; alpha3/beta4; assay: Agonist activity at human alpha3beta4 nAChR expressed in Xenopus laevis oocytes assessed as increase in peak current at 100 uM at -60 mV holding potential by electrophysiology method; format: cell-based
[8] = molecular target: Neuronal acetylcholine receptor; assay: Binding affinity to nAChR in rat brain membranes; format: cell membranes, Membrane

SMILES | inhibition [1] | Activity [2] | IC50 [3] [nM] | Ki [3] [nM] | inhibition [4] | inhibition [5] | Activity [6] | Activity [7] | Kd [8] [nM]
CN1CCC=C(c2cnc(F)c(-c3ccccc3)c2)C1 | inactive | inactive | 20000 | 123 | Active | inactive | inactive | inactive | 
CN1CCC=C(c2ccc(Cl)nc2)C1 |  |  |  |  |  |  |  |  | 2.2
